Measured values from patent US8895585B2, “Nicotinamide derivative or salt thereof” (FUJIFILM Corporation, priority 2010, dated 2014).

How the values were obtained:
[1] = test system: female Lewis rats; assay: Rat type-II-collagen-induced arthritis; type: in vivo; settings: oral administration at 10 mg/kg/day, once daily Day 7 to Day 20, hindlimb volume by plethysmometer, read-out: inhibition of hindlimb swelling compared with the control group
Description: The compounds were tested to examine effects upon rat type II collagen arthritis. To 3 mg/mL bovine type II collagen solution (Collagen Gijutsu Kenshu-Kai) dissolved in 0.05 mol/L acetic acid, an equal amount of Freund's incomplete adjuvant (Wako Pure Chemical Industries, Ltd.) was added to prepare an emulsion. A portion of the emulsion (0.5 ml) was intradermally injected into the tail bases of 7- or 8-week-old female Lewis rats (Charles River Laboratories Japan, Inc.) (Day 0). Each rat was subjected to the same treatment on Day 7 after the initial inoculation so as to induce arthritis. Each test compound was orally administered from Day 7 to Day 20 once daily. At a given time during the period from Day 7 to Day 21, the rat hindlimb volume was determined using a plethysmometer (UGO BASILE), and the result was designated as an arthritis index. The following compound group inhibited hindlimb swelling by 85% or greater compared with the control group in the case of oral administration at 10 mg/kg/day: the compounds of Example 4-17, Example 6-49, Example 6-117, Example 6-157, Example 6-249, Example 6-322, Example 6-375, and Example 6-395.

[2] = test system: male DBA/1J mice; assay: Mouse type-II collagen-induced arthritis (prophylactic and therapeutic administration test); type: in vivo; settings: for advancement of arthritis after the onset (arthritis score): prophylactic administration test, once daily Day 21 to Day 34, 1 to 30 mg/kg/day
Description: The compounds synthesized in Example 8-1, Example 4-17, and Example 6-49 were tested to examine effects upon mouse type II collagen arthritis. To 2 mg/mL bovine type II collagen solution (Koken Co., Ltd.) dissolved in 0.1 mol/L acetic acid, an equal amount of Freund's complete adjuvant (Wako Pure Chemical Industries, Ltd.) was added to prepare an emulsion. A portion of the emulsion was intradermally injected into the tail bases of 7- or 8-week-old male DBA/1J mice (Charles River Laboratories Japan, Inc.) at a dose of 0.2 mL per mouse (antigen amount: 0.2 mg/mouse) on Day 0 and Day 21 twice, so as to induce arthritis. Each compound was administered once daily from Day 21 to Day 34 in the prophylactic administration test (1 to 30 mg/kg/day), and administered once daily from Day 27 to Day 35 in the therapeutic administration test (25 mg/kg/day). Arthritis scores for four limbs for each mouse were determined starting from Day 21. Specifically, the total score of four limbs of a mouse was designated as the individual arthritis score (12 points at a maximum per mouse) based on the following: score 0: no change; score 1: swelling of 1 or 2 digit joints or mild swelling of the carpal region/the ankle region alone; score 2: swelling of joints of at least 3 digits or obvious swelling of the carpal region/the ankle region; and score 3: obvious swelling over forelimbs or hindlimbs.

[3] = test system: 170 types of kinases excluding Syk; assay: Kinase selectivity, Profiler Pro kits (Caliper); type: biochemical; settings: test compound 100 nM
Description: The concentrations of test compounds were adjusted to 100 nM. The test compounds were examined using Profiler Pro kits (Caliper) in terms of activity against each of 170 types of kinases excluding Syk. […] A compound (Example 6-157) having a kinase inhibitory rate of 75% or more with respect to 12 types of kinases was also obtained. Further, an inhibitor (Example 6-373) having a kinase inhibitory rate of 75% or more with respect to 24 types of kinases was obtained.

[4] = target: T1, glutathione S-transferase (GST)-fused full-length human Syk protein (Homo sapiens, UniProt P43405); assay: Syk enzyme assay; type: biochemical; settings: read-out: Syk-inhibitory activity (IC50)
T1 construct: (GST)-fused full-length human Syk protein; GST (glutathione S-transferase); purchased Carna Biosciences
Method in brief: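 Baculovirus-expressed enzyme (1.2 ng) was preincubated with compound in HEPES pH 7.0/MgCl2/DTT buffer, 2 min shaking then 13 min at room temperature. Biotin-EDPDYEWPSA-NH2 (0.4 μM final) and ATP (27 μM final) were added for 40 min at room temperature. EDTA stop, streptavidin-XL/PT66-K TR-FRET at 615/665 nm gave IC50.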

[5] = test system: female BALB/c mice; assay: Mouse type-II-collagen-antibody-induced arthritis; type: in vivo; settings: intraperitoneal 30 mg/kg/day, twice daily, Day 0 to Day 13
Description: The compound synthesized in Example 8-1 was tested to examine effects upon mouse-type-II-collagen-antibody-induced arthritis. An anti-type II collagen antibody mixture (Chondrex) was intraperitoneally injected into 7-week-old female BALB/c mice (Charles River Laboratories Japan, Inc.) (1.5 mg per mouse) (Day 0). An LPS solution 0111:B4 (Chondrex) (50 μg) was intraperitoneally injected thereinto three days later (Day 3), thereby inducing arthritis. Swelling scores were determined for four limbs of each mouse once daily from Day 3 to Day 14. Specifically, evaluation was carried out using a twelve-point scale for the sum of the scores for the four limbs for each mouse: 0 point: no change; 1 point: mild erythema/swelling on the carpal region or the ankle/calcaneal region; 2 points: obvious swelling on the carpal region or the ankle/calcaneal region; 3 points: severe swelling over forelimbs or hindlimbs. The compound synthesized in Example 8-1 was intraperitoneally administered at 30 mg/kg/day twice daily on consecutive days (from Day 0 to Day 13). The bone destruction score was determined based on soft X-ray images of four limbs taken on Day 14. […]

Cc1ccc(Nc2nc(N[C@@H]3CCCC[C@@H]3N)c(F)cc2C(N)=O)cn1 (relative stereo) [Example 4-17, 6-(cis-2-aminocyclohexylamino)-5-fluoro-2-(6-methylpyridin-3-ylamino)nicotinamide]
inhibition in vivo at 10 mg/kg/day [1]: ≥ 85% | advancement of arthritis after the onset (arthritis score) [2]: strongly inhibited

Cc1cncc(Nc2nc(N[C@@H]3CCCC[C@@H]3N)c(F)cc2C(N)=O)c1 (relative stereo) [Example 6-49, 6-(cis-2-aminocyclohexylamino)-5-fluoro-2-(5-methylpyridin-3-ylamino)nicotinamide]
inhibition in vivo at 10 mg/kg/day [1]: ≥ 85% | advancement of arthritis after the onset (arthritis score) [2]: strongly inhibited | advancement of arthritis (arthritis score) ([2]; therapeutic administration test, once daily Day 27 to Day 35, 25 mg/kg/day): strongly inhibited

COCCOc1cc(Nc2nc(N[C@@H](CN)CC(C)C)c(F)cc2C(N)=O)ccn1 [Example 6-157]
inhibition in vivo at 10 mg/kg/day [1]: ≥ 85% | number of kinases with kinase inhibitory rate of 75% or more [3]: 12 types of kinases

C[C@H](N)[C@H](Nc1nc(Nc2cncc(-n3cccn3)c2)c(C(N)=O)cc1F)C1CC1 [Example 6-373, 2-((5-(1H-pyrazol-1-yl)pyridin-3-yl)amino)-6-(((1R,2S)-2-amino-1-cyclopropylpropyl)amino)-5-fluoronicotinamide]
number of kinases with kinase inhibitory rate of 75% or more [3]: 24 types of kinases

NC(=O)c1cc(F)c(N[C@@H]2CCCC[C@@H]2N)nc1Nc1cnc(N2CCOCC2)c(F)c1 [Example 6-395, 6-(((1R,2S)-2-aminocyclohexyl)amino)-5-fluoro-2-((5-fluoro-6-morpholinopyridin-3-yl)amino)nicotinamide]
inhibition in vivo at 10 mg/kg/day [1]: ≥ 85%

COc1cc(Nc2nc(NCCN)c(F)cc2C(N)=O)cc(OC)c1 [Example 8-1, 6-(2-aminoethylamino)-2-(3,5-dimethoxyphenylamino)-5-fluoronicotinamide]
advancement of arthritis after the onset (arthritis score) [2]: strongly inhibited | IC50 [4]: ≤ 1000 nM | increase in the swelling score ([5]; scored Day 3 to Day 14): almost completely inhibited | increase in the bone destruction score ([5]; soft X-ray images on Day 14): almost completely inhibited
